Reference: ChEMBL document CHEMBL1140613, “Antituberculosis drugs: ten years of research” (2007)
≈ marks a conversion by molar mass, not a printed value.

Test system: Mycobacterium tuberculosis
Experiment: Antituberculosis activity against Mycobacterium tuberculosis
Type: functional

For `COc1nc2ccc(Br)cc2cc1[C@@H](c1ccccc1)[C@@](O)(CCN(C)C)c1cccc2ccccc12` [BEDAQUILINE], the MIC99 was 0.06 µg/mL (≈ 0.108 µM).
